Source: ChEMBL document CHEMBL3885881, “DrugMatrix”

Species on record: Rattus norvegicus
Experiment: DrugMatrix - Regimen: Daily Repeat
Type: toxicity, organism-based, Sprague-Dawley
Parameters: regimen Daily Repeat, gender Male, age 6-8 weeks
Settings: in vivo, sc, 1915 mg/kg, route subcutaneous, dose level High, […]; for ABSOLUTE BASOPHIL / ABSOLUTE EOSINOPHIL / ABSOLUTE LYMPHOCYTE / ABSOLUTE MONOCYTE / ABSOLUTE SEGMENTED NEUTROPHIL / BASOPHIL / EOSINOPHIL / ERYTHROCYTE COUNT / HEMATOCRIT / HEMOGLOBIN / LEUKOCYTE COUNT / LYMPHOCYTE / MEAN CORPUSCULAR HEMOGLOBIN / MEAN CORPUSCULAR HEMOGLOBIN CONCENTRATION / MEAN CORPUSCULAR VOLUME / MONOCYTE / NEUTROPHIL / NUCLEATED RED BLOOD CELLS / PLATELET COUNT: tissue Blood; for ALANINE AMINOTRANSFERASE / ALBUMIN / ALKALINE PHOSPHATASE / ASPARTATE AMINOTRANSFERASE / BLOOD UREA NITROGEN / CARBON DIOXIDE / CHLORIDE / CHOLESTEROL / CREATINE PHOSPHOKINASE / CREATININE / GLUCOSE / LACTATE DEHYDROGENASE / LIPASE / PHOSPHORUS / POTASSIUM / SODIUM / TOTAL BILIRUBIN / TOTAL PROTEIN / URIC ACID: tissue Plasma

Cc1cc(O)cc(C)c1Cl [CHLOROXYLENOL]
ABSOLUTE BASOPHIL (72 h, time 3 day): 0 CELLS/uL | ABSOLUTE EOSINOPHIL (72 h, time 3 day): 0 CELLS/uL | ABSOLUTE LYMPHOCYTE (72 h, time 3 day): 13518.33 CELLS/uL | ABSOLUTE MONOCYTE (72 h, time 3 day): 372.33 CELLS/uL | ABSOLUTE SEGMENTED NEUTROPHIL (72 h, time 3 day): 2242.67 CELLS/uL | BASOPHIL (72 h, time 3 day): 0% | EOSINOPHIL (72 h, time 3 day): 0% | ERYTHROCYTE COUNT (72 h, time 3 day): 5.43 x10E6/uL | HEMATOCRIT (72 h, time 3 day): 33.13% | HEMOGLOBIN (72 h, time 3 day): 12.03 G/DL | LEUKOCYTE COUNT (72 h, time 3 day): 16.13 x10E3/uL | LYMPHOCYTE (72 h, time 3 day): 84.33% | MEAN CORPUSCULAR HEMOGLOBIN (72 h, time 3 day): 22.17 pg | MEAN CORPUSCULAR HEMOGLOBIN CONCENTRATION (72 h, time 3 day): 36.33 G/DL | MEAN CORPUSCULAR VOLUME (72 h, time 3 day): 61.07 fL | MONOCYTE (72 h, time 3 day): 2.33% | NEUTROPHIL (72 h, time 3 day): 13.33% | NUCLEATED RED BLOOD CELLS (72 h, time 3 day): 0 /100WBC | PLATELET COUNT (72 h, time 3 day): 1126.33 x10E3/uL | ALANINE AMINOTRANSFERASE (72 h, time 3 day): 50.33 u/L | ALBUMIN (72 h, time 3 day): 3.67 G/DL | ALKALINE PHOSPHATASE (72 h, time 3 day): 250.33 u/L | ASPARTATE AMINOTRANSFERASE (72 h, time 3 day): 81.67 u/L | BLOOD UREA NITROGEN (72 h, time 3 day): 18 mg/dL | CARBON DIOXIDE (72 h, time 3 day): 24.33 mmol/L | CHLORIDE (72 h, time 3 day): 104.33 MEQ/L | CHOLESTEROL (72 h, time 3 day): 76.67 mg/dL | CREATINE PHOSPHOKINASE (72 h, time 3 day): 276 u/L | CREATININE (72 h, time 3 day): 0.18 mg/dL | GLUCOSE (72 h, time 3 day): 175 mg/dL | LACTATE DEHYDROGENASE (72 h, time 3 day): 84.67 u/L | LIPASE (72 h, time 3 day): 8.67 u/L | PHOSPHORUS (72 h, time 3 day): 11.43 mg/dL | POTASSIUM (72 h, time 3 day): 6.05 MEQ/L | SODIUM (72 h, time 3 day): 145.23 MEQ/L | TOTAL BILIRUBIN (72 h, time 3 day): 0.13 mg/dL | TOTAL PROTEIN (72 h, time 3 day): 5.67 G/DL | URIC ACID (72 h, time 3 day): 2.13 mg/dL | ABSOLUTE BASOPHIL (120 h, time 5 day): 0 CELLS/uL | ABSOLUTE EOSINOPHIL (120 h, time 5 day): 164.67 CELLS/uL | ABSOLUTE LYMPHOCYTE (120 h, time 5 day): 16889.67 CELLS/uL | ABSOLUTE MONOCYTE (120 h, time 5 day): 1259.67 CELLS/uL | ABSOLUTE SEGMENTED NEUTROPHIL (120 h, time 5 day): 6552.67 CELLS/uL | BASOPHIL (120 h, time 5 day): 0% | EOSINOPHIL (120 h, time 5 day): 0.67% | ERYTHROCYTE COUNT (120 h, time 5 day): 5.49 x10E6/uL | HEMATOCRIT (120 h, time 5 day): 33.1% | HEMOGLOBIN (120 h, time 5 day): 12.6 G/DL | LEUKOCYTE COUNT (120 h, time 5 day): 24.87 x10E3/uL | LYMPHOCYTE (120 h, time 5 day): 68% | MEAN CORPUSCULAR HEMOGLOBIN (120 h, time 5 day): 23.07 pg | MEAN CORPUSCULAR HEMOGLOBIN CONCENTRATION (120 h, time 5 day): 38.1 G/DL | MEAN CORPUSCULAR VOLUME (120 h, time 5 day): 60.43 fL | MONOCYTE (120 h, time 5 day): 5% | NEUTROPHIL (120 h, time 5 day): 26.33% | NUCLEATED RED BLOOD CELLS (120 h, time 5 day): 0 /100WBC | PLATELET COUNT (120 h, time 5 day): 1493 x10E3/uL | ALANINE AMINOTRANSFERASE (120 h, time 5 day): 55.67 u/L | ALBUMIN (120 h, time 5 day): 3.17 G/DL | ALKALINE PHOSPHATASE (120 h, time 5 day): 330 u/L | ASPARTATE AMINOTRANSFERASE (120 h, time 5 day): 87.67 u/L | BLOOD UREA NITROGEN (120 h, time 5 day): 18.33 mg/dL | CARBON DIOXIDE (120 h, time 5 day): 32 mmol/L | CHLORIDE (120 h, time 5 day): 103.67 MEQ/L | CHOLESTEROL (120 h, time 5 day): 77 mg/dL | CREATINE PHOSPHOKINASE (120 h, time 5 day): 151 u/L | CREATININE (120 h, time 5 day): 0.22 mg/dL | GLUCOSE (120 h, time 5 day): 164 mg/dL | LACTATE DEHYDROGENASE (120 h, time 5 day): 64 u/L | LIPASE (120 h, time 5 day): 8 u/L | PHOSPHORUS (120 h, time 5 day): 11.27 mg/dL | POTASSIUM (120 h, time 5 day): 6.34 MEQ/L | SODIUM (120 h, time 5 day): 145.63 MEQ/L | TOTAL BILIRUBIN (120 h, time 5 day): 0.13 mg/dL | TOTAL PROTEIN (120 h, time 5 day): 5.33 G/DL | URIC ACID (120 h, time 5 day): 1.83 mg/dL
